# In patent publication US20030181362A1, “Receptor” (priority 2000, published 2003):
# How the values were obtained:
# [1] = Immune complex inflammation in mouse ear (human albumin i.v., anti-HA s.c.); type: in vivo, Mice
# Description: FIG. 22: Mice (7 or 8 per group) injected with human albumin (HA) 10 mg/kg i.v. (200 μl of a solution 1 mg/ml in Evans blue1%). After 5 min anti-HA injected s.c. in situ (in ear). Test compounds then injected and after 4 h evaluations made for reduction of inflammation. Oedema was evaluated by weight. Plasma extravasation as measure of microvascular permeability or haemorrage was measured by extraction of extravasated Evan's blue dye with formamide from injected ears. As well as subcutaneous (s.c.) administration of H17 (the test compound of formula HEVKIKHFSPY at two concentrations), it was also given intravenously (0.1 mg/kg). The positive control for reduction in inflammation in this experiment was cromolyn.
# Classical Pathway = assay: Inhibition of Classical pathway-mediated lysis of antibody-sensitized sheep erythrocytes in normal human serum; type: biochemical
# Description: To determine whether the interaction of C2 with ShTORE-ed-1 could affect the normal interaction of C2 with other complement proteins and thereby inhibit complement activation, the effect of the TORE-ed-1 peptide on complement activation was assessed. The ability of the TORE-ed-1 peptide to inhibit the lysis of antibody-sensitized sheep erythrocytes, in the presence of normal human serum, NHS (and therefore in the presence of complement proteins C1 through to […]), in a dose-dependent manner, was used as a measure of its ability to inhibit the Classical Pathway. The extent of haemolysis was determined by spectrophotometric measurement of haemoglobin release at 412 nm. An IC60 value of approximately 10 μM was found (FIG. 11A and B).
# (§1) FIG. 11(A) and (B) Effect of increasing TORE-ed1 peptide on the complement-mediated lysis of sensitized sheep red blood cells in the presence of normal human serum as a source of complement. FIG. 11(C) and (D) Effect of increasing TORE-ed1 peptide preincubated with C2 on haemolysis in the presence of human serum in which C2 is limiting. FIG. 11(E) effect of various Tore peptides and Tore related C4b-derived peptides on complement mediated lysis.
# human complement C2 [2] = target: T1, human complement C2 (Homo sapiens, UniProt P06681); assay: Haemolysis with C2-deficient human serum reconstituted with C2, peptide preincubated with C2; type: biochemical; settings: peptide preincubated with C2 before addition to C2-depleted serum
# T1 sequence (P06681 21-752): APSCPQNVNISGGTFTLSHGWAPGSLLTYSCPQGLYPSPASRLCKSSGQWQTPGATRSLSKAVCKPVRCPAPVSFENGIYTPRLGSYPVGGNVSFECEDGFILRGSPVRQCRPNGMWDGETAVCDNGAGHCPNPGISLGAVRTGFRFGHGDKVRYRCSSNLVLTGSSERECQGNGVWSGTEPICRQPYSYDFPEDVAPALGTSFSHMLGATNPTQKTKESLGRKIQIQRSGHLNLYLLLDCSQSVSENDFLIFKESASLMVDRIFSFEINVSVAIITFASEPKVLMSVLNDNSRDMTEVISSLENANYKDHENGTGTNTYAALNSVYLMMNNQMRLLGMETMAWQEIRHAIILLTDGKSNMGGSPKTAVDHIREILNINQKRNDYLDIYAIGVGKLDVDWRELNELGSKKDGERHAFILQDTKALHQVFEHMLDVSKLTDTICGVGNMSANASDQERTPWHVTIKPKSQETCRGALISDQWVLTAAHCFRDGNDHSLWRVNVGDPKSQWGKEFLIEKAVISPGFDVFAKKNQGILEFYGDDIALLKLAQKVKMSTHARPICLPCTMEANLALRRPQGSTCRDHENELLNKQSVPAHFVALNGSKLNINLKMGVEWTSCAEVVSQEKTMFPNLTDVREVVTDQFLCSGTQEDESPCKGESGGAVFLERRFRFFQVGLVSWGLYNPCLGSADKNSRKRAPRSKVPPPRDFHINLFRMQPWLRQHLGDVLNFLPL
# Description: As an additional confirmation that TORE-ed-1 specifically binds to human complement C2, C2-deficient human serum with enough C2 added to reconstitute haemolytic activity, was used in the same assay.
# as §1
# human complement C2 [3] = target: T1, human complement C2; assay: Receptor affinity chromatography with immobilised ed-1 peptide; type: binding; parameters: One litre of serum-free medium which had maintained the cells; endogenous in cells; host or cells: THP-1 (human macrophage-like cells), conditioned serum-free medium
# From the text: In order to identify a likely ligand, the putative ligand-binding domain of ShTORE, extracellular domain 1 (ed-1), was used in receptor affinity chromatography. It was assumed that the cells expressing the receptor themselves produced the ligand in an “autocrine” manner. The cells chosen were the macrophage-like (human) THP-1 cells. These were adapted to grow in conditioned, serum-free medium in order to increase the chances of finding the ligand for TORE. One litre of serum-free medium which had maintained the cells, and as a control one litre of serum-free medium without cells, was passed through identical epoxy-activated Sepharose 6B columns with the 27-mer ShTORE-ed-1 peptide attached. Fractions were collected from a low pH elution and 20 μl aliquots run on SDS-PAGE. An 83 kDa protein band was identified (FIG. 10A, lane 1). The fraction was concentrated, transferred to problot and stained with Coomassie Brilliant blue. The band was then excised and the N-terminal sequence determined. The resulting six residues indicated the protein to be human complement protein C2. The fully glycosylated version of C2, however should have been 102 kDa.
substance,measurement,setting,value
HEVKIKSPY [TOR-ed1 peptide; probably a misprint of …],inflammation mediated by immune complexes and Classical pathway complement (Type III hypersensitivity),[1]; in vivo,reduce inflammation
SSTSDIRLVIHTKTGPIYIKST (shistosoma haematobium) [SEQ ID NO 2],complement inhibition in vitro,Classical Pathway,inhibit complement action in vitro
FEVKITPGKPY [C4b β chain derived peptide],complement inhibition in vitro,Classical Pathway,shown to inhibit complement in vitro
"NH2-Met-Ser-Pro-Ser-Leu-Val-Ser-Asp-Thr-Gln-Lys-His-Glu-Arg-Gly-Ser-His-Glu-Val-Lys-Ile-Lys-His-Phe-Ser-Pro-Tyr-CO2H (H-MSPSLVSDTQKHERGSHEVKIKHFSPY-OH) [TORE-ed-1 peptide, 27-mer peptide of extracellular domain 1 of ShTORE]",complement inhibition in vitro,Classical Pathway,inhibit complement action in vitro
same,concentration able to inhibit the haemolytic activity of C2 from the Classical pathway,Classical Pathway; normal human serum,10 µM
same,"IC60, inhibition of lysis of antibody-sensitized sheep erythrocytes","Classical Pathway; normal human serum, haemoglobin release at 412 nm",approximately 10 μM
same,inhibition of haemolytic activity,human complement C2 [2],inhibit haemolytic activity
same,interaction with C2,human complement C2 [3],interact with human complement protein C2
HEVKIKHFSPY (shistosoma haematobium) [H17],complement inhibition in vitro,Classical Pathway,capable of effective complement inhibition in vitro
same,reduction of haemorrage (Evans blue extravasation),"[1]; 1 μg dose, 4 h",30%
same,reduction of oedema (by weight),"[1]; 1 μg dose, 4 h",28%
